Key:
[1] = test system: HCV replicon in Huh7 cells; experiment: HCV replicon cell-based assay; parameters: species or system HCV strain 1B; settings: Hepatitis C virus, Huh-7, 96 h; HCV replicon, Huh7 cells, 4 days; activity ranges; read-out: EC50
Procedure, shortened: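 Genotype 1b subgenomic replicon Huh7 cells exposed to compound 4 days at 37° C in 4% FCS, 0.5% DMSO medium. EC50 from TaqMan RT-PCR of HCV RNA, normalized to total RNA by RiboGreen; CC50 from alamar Blue fluorescence after 4 h.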

[2] = molecular target: HCV NS3/4A protease complex (Hepatitis C virus genotype 1a, UniProt P27958, C1454S/C1711G); experiment: Recombinant HCV NS3/4A protease complex FRET peptide assay (strain not stated); type: biochemical; settings: IC50, NS3/4A protease enzyme assay, strain not stated; activity ranges
HCV NS3/4A protease complex, sequence (P27958 1027-1711, stated change not applied): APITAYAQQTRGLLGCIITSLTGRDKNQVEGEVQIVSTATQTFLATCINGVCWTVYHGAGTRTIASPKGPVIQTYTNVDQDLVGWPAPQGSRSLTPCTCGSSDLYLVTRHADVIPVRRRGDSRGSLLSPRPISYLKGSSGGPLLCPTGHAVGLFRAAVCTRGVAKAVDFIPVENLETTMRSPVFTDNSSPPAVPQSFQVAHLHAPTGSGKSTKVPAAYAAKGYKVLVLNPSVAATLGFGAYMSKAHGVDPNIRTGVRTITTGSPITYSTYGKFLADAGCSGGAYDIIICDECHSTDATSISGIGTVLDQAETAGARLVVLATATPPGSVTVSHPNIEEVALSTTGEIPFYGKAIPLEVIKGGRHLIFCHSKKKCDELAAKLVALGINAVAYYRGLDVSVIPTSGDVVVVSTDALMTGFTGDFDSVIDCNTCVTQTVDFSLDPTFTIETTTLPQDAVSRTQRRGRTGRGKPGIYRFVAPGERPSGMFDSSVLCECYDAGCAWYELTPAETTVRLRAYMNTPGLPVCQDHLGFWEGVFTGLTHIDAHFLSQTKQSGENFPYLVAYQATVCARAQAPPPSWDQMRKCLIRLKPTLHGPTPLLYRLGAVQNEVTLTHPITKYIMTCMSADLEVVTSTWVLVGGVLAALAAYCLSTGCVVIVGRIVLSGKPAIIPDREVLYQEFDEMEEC
HCV NS3/4A protease complex, sequence (P27958 1027-1711, stated change not applied): as above

SMILES | EC50 [1] [nM] | IC50 [2] [nM]
C=CC1C[C@]1(NC(=O)[C@@H]1C[C@@H](Oc2cc(-c3ccccc3)nc3cc(OC)ccc23)CN1C(=O)C(NC(=O)OC(C)(C)C)C(C)(C)C)C(=O)NS(=O)(=O)c1ccc(C(C)(C)C)cc1 (stereo partly drawn) [Compound 60] | < 500 | < 500
C=CC1C[C@]1(NC(=O)[C@@H]1C[C@@H](Oc2cc(-c3ccccc3)nc3cc(OC)ccc23)CN1C(=O)[C@@H](NC(=O)OC(C)(C)C)C(C)(C)C)C(=O)N[S+]([O-])C(C)(C)C (stereo partly drawn) [Compound 61] | < 5000 | < 500
C=CC1C[C@]1(NC(=O)[C@@H]1C[C@@H](Oc2cc(-c3ccccc3)nc3cc(OC)ccc23)CN1C(=O)C(NC(=O)OC(C)(C)C)C(C)(C)C)C(=O)NS(=O)(=O)c1ccccc1C (stereo partly drawn) [Compound 63] | < 500 | < 50
COc1ccc2c(O[C@@H]3C[C@@H](C(=O)NC4(C(=O)NS(=O)(=O)C5CC5)CC4)N(C(=O)[C@@H](NC(=O)OC(C)(C)C)C(C)(C)C)C3)cc(-c3ccccc3)nc2c1 [Compound 67] | < 5000 | < 50
CCC(C)[C@H](NC(=O)OC(C)(C)C)C(=O)N1C[C@H](Oc2cc(-c3ccccc3)nc3cc(OC)ccc23)C[C@H]1C(=O)NC1(C(=O)NS(=O)(=O)C2CC2)CC1 (stereo partly drawn) [Compound 68] | < 5000 | < 50
C=CC1CC1(NC(=O)OC(C)(C)C)C(=O)N1C[C@H](Oc2cc(-c3ccccc3)nc3cc(OC)ccc23)C[C@H]1C(=O)N[C@]1(C(=O)NS(=O)(=O)C2CC2)CC1CC (stereo partly drawn) [Compound 69] | < 500 | < 500
C=CC1C[C@]1(NC(=O)[C@@H]1C[C@@H](Oc2cc(-c3ccccc3)nc3cc(OC)ccc23)CN1C(=O)[C@@H](NC(=O)OC(C)(C)C)C(C)C)C(=O)NS(=O)(=O)C1CCC1 (stereo partly drawn) [Compound 71] | < 50 | < 50
C=CC1C[C@]1(NC(=O)[C@@H]1C[C@@H](Oc2cc(-c3ccccc3)nc3cc(OC)ccc23)CN1C(=O)[C@@H](NC(=O)OC(C)(C)C)C1CCCC1)C(=O)NS(=O)(=O)C1CCC1 (stereo partly drawn) [Compound 72] | < 500 | < 500
C=CC1CC1(NC(=O)[C@@H]1C[C@@H](Oc2cc(-c3ccccc3)nc3cc(OC)ccc23)CN1C(=O)[C@@H](NC(=O)OC(C)(C)C)C(C)(C)C)C(=O)NS(C)(=O)=O (stereo partly drawn) [Compound 86] | < 500 | < 50
C=CC1CC1(NC(=O)[C@@H]1C[C@@H](Oc2cc(-c3ccccc3)nc3cc(OC)ccc23)CN1C(=O)[C@@H](NC(=O)OC(C)(C)C)C(C)C)C(=O)NS(C)(=O)=O (stereo partly drawn) [Compound 89] | < 5000 | < 500
C=CC1CC1(NC(=O)[C@@H]1C[C@@H](Oc2cc(-c3ccccc3)nc3cc(OC)ccc23)CN1C(=O)[C@@H](NC(=O)OC(C)(C)C)C(C)(C)C)C(=O)NS(=O)(=O)C1CC1 (stereo partly drawn) [Compound 91] | < 50 | < 50
C=C[C@@H]1C[C@]1(NC(=O)C1C[C@@H](Oc2cc(-c3ccccc3)nc3cc(OC)ccc23)CN1C(=O)[C@@H](NC(C)=O)C(C)(C)C)C(=O)NS(=O)(=O)C1CC1 (stereo partly drawn) [Compound 98, 1-(2S-Acetylamino-3,3-dimethyl-butyryl)-4R-(7-methoxy-2-phenyl-quinolin-4-yloxy)-pyrrolidine-2S-carboxylic acid (1R-cyclopropanesulfonylaminocarbonyl-2S-vinyl-cyclopropyl)amide] | < 500 | < 50
C=C[C@@H]1C[C@]1(NC(=O)C1C[C@@H](Oc2cc(-c3ccccc3)nc3cc(OC)ccc23)CN1C(=O)[C@@H](NC(=O)C(F)(F)F)C(C)(C)C)C(=O)NS(=O)(=O)C1CC1 (stereo partly drawn) [Compound 99, 1-[3,3-dimethyl-2S-(2,2,2-trifluoro-acetylamino)-butyryl]-4R-(7-methoxy-2-phenylquinolin-4-yloxy)pyrrolidine-2S-carboxylic acid(1R-cyclopropanesulfonylaminocarbonyl-2S-vinylcyclopropyl)amide] | < 500 | < 50
C=C[C@@H]1C[C@]1(NC(=O)C1C[C@@H](Oc2cc(-c3ccccc3)nc3cc(OC)ccc23)CN1C(=O)[C@@H](NC(=O)CCC(=O)O)C(C)(C)C)C(=O)NS(=O)(=O)C1CC1 (stereo partly drawn) [Compound 100, N-{1S-[2S-(1R-cyclopropanesulfonylaminocarbonyl-2S-vinyl-cyclopropylcarbamoyl)-4R-(7-methoxy-2-phenyl-quinolin-4-yloxy)-pyrrolidine-1-carbonyl]-2,2-dimethyl-propyl}-succinamic acid] | < 500 | < 50
C=C[C@@H]1C[C@]1(NC(=O)C1C[C@@H](Oc2cc(-c3ccccc3)nc3cc(OC)ccc23)CN1C(=O)[C@@H](NC(=O)C(C)(C)C)C(C)(C)C)C(=O)NS(=O)(=O)C1CC1 (stereo partly drawn) [Compound 101, 1-[2S-(2,2-Dimethylpropionylamino)-3,3-dimethyl-butyryl]-4R-(7-methoxy-2-phenyl-quinolin-4-yloxy)-pyrrolidine-2S-carboxylic acid (1R-cyclo-propanesulfonylaminocarbonyl-2S-vinylcyclopropyl)-amide] | < 500 | < 50
C=C[C@@H]1C[C@]1(NC(=O)C1C[C@@H](Oc2cc(-c3ccccc3)nc3cc(OC)ccc23)CN1C(=O)[C@@H](NC(=O)CO)C(C)(C)C)C(=O)NS(=O)(=O)C1CC1 (stereo partly drawn) [Compound 102, 1-[2S-(2-hydroxy-acetylamino)-3,3-dimethyl-butyryl]-4R-(7-methoxy-2-phenyl-quinolin-4-yloxy)-pyrrolidine-2S-carboxylic acid (1R-cyclopropanesulfonylamino-carbonyl-2S-vinyl-cyclopropyl)-amide] | < 500 | < 50
C=C[C@@H]1C[C@]1(NC(=O)C1C[C@@H](Oc2cc(-c3ccccc3)nc3cc(OC)ccc23)CN1C(=O)[C@@H](NC(=O)CC(C)(C)C)C(C)(C)C)C(=O)NS(=O)(=O)C1CC1 (stereo partly drawn) [Compound 103, 1-[2S-(3,3-Dimethyl-butyrylamino)-3,3-dimethyl-butyryl]-4R-(7-methoxy-2-phenyl-quinolin-4-yloxy)-pyrrolidine-2S-carboxylic acid (1R-cyclopropanesulfonylaminocarbonyl-2S-vinyl-cyclopropyl)amide] | < 50 | < 50
C=C[C@@H]1C[C@]1(NC(=O)C1C[C@@H](Oc2cc(-c3ccccc3)nc3cc(OC)ccc23)CN1C(=O)[C@@H](NC(=O)CC1CC1)C(C)(C)C)C(=O)NS(=O)(=O)C1CC1 (stereo partly drawn) [Compound 104, 1-[2S-(2-cyclopropyl-acetylamino)-3,3-dimethyl-butyryl]-4R-(7-methoxy-2-phenyl-quinolin-4-yloxy)-pyrrolidine-2S-carboxylic acid (1R-cyclopropanesulfonylaminocarbonyl-2S-vinyl-cyclopropyl)-amide] | < 50 | < 50
C=CC1CC1(NC(=O)C1CC(Oc2cc(-c3ccccc3)nc3cc(OC)ccc23)CN1C(=O)C(NC(=O)C1C2CC1C2)C(C)(C)C)C(=O)NS(=O)(=O)C1CC1 (stereo not drawn) [Compound 105, 1-{2S-[(bicyclo[1.1.1]pentane-2-carbonyl)-amino]-3,3-dimethyl-butyryl}-4R-(7-methoxy-2-phenyl-quinolin-4-yloxy)-pyrrolidine-2S-carboxylic acid (1R-cyclopropanesulfonylaminocarbonyl-2S-vinylcyclopropyl)amide] | < 50 | < 50
C=C[C@@H]1C[C@]1(NC(=O)C1C[C@@H](Oc2cc(-c3ccccc3)nc3cc(OC)ccc23)CN1C(=O)[C@@H](NC(=O)COC(C)=O)C(C)(C)C)C(=O)NS(=O)(=O)C1CC1 (stereo partly drawn) [Compound 106, acetic acid {1S-[2S-(1R-cyclopropanesulfonylaminocarbonyl-2S-vinyl-cyclopropylcarbamoyl)-4R-(7-methoxy-2-phenyl-quinolin-4-yloxy)-pyrrolidine-1-carbonyl]-2,2-dimethyl-propylcarbamoyl}-methyl ester] | < 500 | < 50
C=C[C@@H]1C[C@]1(NC(=O)C1C[C@@H](Oc2cc(-c3ccccc3)nc3cc(OC)ccc23)CN1C(=O)[C@@H](NC(=O)COC)C(C)(C)C)C(=O)NS(=O)(=O)C1CC1 (stereo partly drawn) [Compound 107, 1-[2S-(2-methoxy-acetylamino)-3,3-dimethyl-butyryl]-4R-(7-methoxy-2-phenyl-quinolin-4-yloxy)-pyrrolidine-2S-carboxylic acid (1R-cyclopropanesulfonylamino-carbonyl-2S-vinyl-cyclopropyl)-amide] | < 500 | < 50
C=C[C@@H]1C[C@]1(NC(=O)C1C[C@@H](Oc2cc(-c3ccccc3)nc3cc(OC)ccc23)CN1C(=O)[C@@H](NC(=O)COc1ccc(OC)cc1)C(C)(C)C)C(=O)NS(=O)(=O)C1CC1 (stereo partly drawn) [Compound 108] | < 500 | < 50
C=C[C@@H]1C[C@]1(NC(=O)C1C[C@@H](Oc2cc(-c3ccccc3)nc3cc(OC)ccc23)CN1C(=O)[C@@H](NC(=O)COc1ccc(F)cc1)C(C)(C)C)C(=O)NS(=O)(=O)C1CC1 (stereo partly drawn) [Compound 109, 1-{2S-[2-(4-Fluoro-phenoxy)-acetylamino]-3,3-dimethyl-butyryl}-4R-(7-methoxy-2-phenyl-quinolin-4-yloxy)-pyrrolidine-2S-carboxylic acid (1R-cyclopropanesulfonylaminocarbonyl-2S-vinylcyclopropyl)-amide] | < 500 | < 50
C=C[C@@H]1C[C@]1(NC(=O)C1C[C@@H](Oc2cc(-c3ccccc3)nc3cc(OC)ccc23)CN1C(=O)[C@@H](NC(=O)c1ccco1)C(C)(C)C)C(=O)NS(=O)(=O)C1CC1 (stereo partly drawn) [Compound 110, 1-{2S-[(furan-2-carbonyl)-amino]-3,3-dimethyl-butyryl}-4R-(7-methoxy-2-phenyl-quinolin-4-yloxy)-pyrrolidine-2S-carboxylic acid (1R-cyclopropanesulfonylaminocarbonyl-2S-vinyl-cyclopropyl)-amide] | < 500 | < 50
